Data on seven compounds can be found in patent publication US9676773B2, “Azaindole derivative” (TAIHO PHARMACEUTICAL CO., LTD., priority 2014, dated 2017).

Holding throughout (assay type): biochemical
Assay [1] has as its target T1, purified recombinant human JAK1 protein (Homo sapiens, UniProt P23458).
T1 construct: purchased Carna Biosciences, Inc
The assay is described as follows: Measurement of JAK1 kinase-inhibitory activity. The note with it: substrate peptide 1 μM, ATP 75 M (so in the source), 25° C., 120 minutes. As to the method: 1) Measurement of JAK1 Kinase-Inhibitory Activity
The activity of the compound of the present invention to inhibit the activity of JAK1 kinase was measured.
Among materials for the measurement of this inhibitory activity, a substrate peptide and a kinase protein were acquired as follows. As such a substrate peptide, a substrate peptide for QSS Assist™ JAK1-MSA assay kit (Carna Biosciences, Inc.) was purchased. As such a kinase protein, a purified recombinant human JAK1 protein (Carna Biosciences, Inc.) was purchased.
The method for measuring the inhibitory activity is as follows. First, the compounds of the present invention were each dissolved in dimethyl sulfoxide (DMSO), and a serial dilution was then prepared by the use of DMSO. Subsequently, a serial dilution solution of the compound (the final concentration of DMSO upon a kinase reaction: 5.0%) or DMSO (final concentration: 5.0%) was mixed with a solution containing the substrate peptide (final concentration: 1 μM), magnesium chloride (final concentration: 5 mM) and ATP (final concentration: 75 µM) in a buffer for kinase reaction (20 mM HEPES (pH 7.5), 2 mM dithiothreitol and 0.01% Triton X-100). Thereafter, a JAK1 protein was further added to the mixed solution, and the obtained mixture was then incubated at 25° C. for 120 minutes to carry out a kinase reaction. To the reaction solution, EDTA was added to a final concentration of 30 mM, so as to terminate the reaction. Finally, with LabChip EZ Reader II (Perkin Elmer Corp.), an unphosphorylated substrate peptide (S) and a phosphorylated peptide (P) were subjected to microchannel capillary electrophoresis, so that the two peptides were separated from each other and were then detected. The amount of a phosphorylation reaction was obtained based on the heights of the peaks of S and P, and the concentration of the compound capable of inhibiting 50% of the phosphorylation reaction was defined as an IC50 value (nM).

The target in assay [2] is T2, purified recombinant human JAK2 protein (Homo sapiens, UniProt O60674).
T2 construct: purchased Carna Biosciences, Inc
The assay is described as follows: Measurement of JAK2 kinase-inhibitory activity. Conditions: FL-Peptide 22 1 μM, ATP 10 μM, 25° C., 80 minutes. The protocol: 2) Measurement of JAK2 Kinase-Inhibitory Activity
The activity of the compound of the present invention to inhibit the activity of JAK2 kinase was measured.
Among materials for the measurement of this inhibitory activity, a substrate peptide and a kinase protein were acquired as follows. As such a substrate peptide, FL-Peptide 22 (Perkin Elmer Corp.) was purchased. As such a kinase protein, a purified recombinant human JAK2 protein (Carna Biosciences, Inc.) was purchased.
(§1) The method for measuring the inhibitory activity is as follows. First, a serial dilution of the compound of the present invention was prepared by the same method as that described in the above section regarding JAK1. This serial dilution solution (the final concentration of DMSO upon a kinase reaction: 5.0%) or DMSO (final concentration: 5.0%) was mixed with a solution containing the substrate peptide (final concentration: 1 μM), magnesium chloride (final concentration: 10 mM) and ATP (final concentration: 10 μM) in a buffer for kinase reaction (15 mM Tris (pH 7.5), 2 mM dithiothreitol and 0.01% Tween 20). Thereafter, a JAK2 protein was further added to the mixed solution, and the obtained mixture was then incubated at 25° C. for 80 minutes to carry out a kinase reaction. To the reaction solution, EDTA was added to a final concentration of 30 mM, so as to terminate the reaction. After termination of the reaction, the measurement and the data analysis were carried out by the same methods as those described in the above section regarding JAK1.

Assay [3] concerns the target T3, purified recombinant human JAK3 protein (Homo sapiens, UniProt P52333).
T3 construct: purchased Carna Biosciences, Inc
T3 sequence (P52333 1-1124): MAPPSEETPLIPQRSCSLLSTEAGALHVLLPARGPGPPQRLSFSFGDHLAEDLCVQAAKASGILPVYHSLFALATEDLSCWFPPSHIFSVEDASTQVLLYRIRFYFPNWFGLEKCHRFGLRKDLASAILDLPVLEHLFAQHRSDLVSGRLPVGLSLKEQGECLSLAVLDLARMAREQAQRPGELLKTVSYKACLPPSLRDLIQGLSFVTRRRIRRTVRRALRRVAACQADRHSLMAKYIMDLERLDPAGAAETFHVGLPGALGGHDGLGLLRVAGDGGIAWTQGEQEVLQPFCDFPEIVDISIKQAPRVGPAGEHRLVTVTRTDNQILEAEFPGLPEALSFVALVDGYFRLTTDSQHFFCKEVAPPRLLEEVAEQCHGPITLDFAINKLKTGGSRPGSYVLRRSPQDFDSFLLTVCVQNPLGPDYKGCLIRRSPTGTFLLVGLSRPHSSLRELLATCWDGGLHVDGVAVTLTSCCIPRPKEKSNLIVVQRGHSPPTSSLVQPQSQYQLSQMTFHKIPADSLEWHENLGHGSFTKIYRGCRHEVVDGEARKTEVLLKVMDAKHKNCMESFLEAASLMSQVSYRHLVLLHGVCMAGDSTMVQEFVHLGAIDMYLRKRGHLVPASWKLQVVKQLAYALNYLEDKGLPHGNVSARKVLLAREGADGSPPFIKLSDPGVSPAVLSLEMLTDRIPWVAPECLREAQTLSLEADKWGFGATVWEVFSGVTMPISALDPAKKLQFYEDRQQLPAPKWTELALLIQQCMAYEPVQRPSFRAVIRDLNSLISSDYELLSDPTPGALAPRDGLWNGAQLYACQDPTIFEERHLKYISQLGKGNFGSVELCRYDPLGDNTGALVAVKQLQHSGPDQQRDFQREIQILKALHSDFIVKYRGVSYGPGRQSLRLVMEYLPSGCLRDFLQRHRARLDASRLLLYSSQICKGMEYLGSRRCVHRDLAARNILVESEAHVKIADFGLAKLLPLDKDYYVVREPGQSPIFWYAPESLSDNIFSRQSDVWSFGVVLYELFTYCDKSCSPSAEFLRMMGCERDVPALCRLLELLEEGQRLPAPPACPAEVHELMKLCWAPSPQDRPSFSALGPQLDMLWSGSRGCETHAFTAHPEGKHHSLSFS
The assay is described as follows: Measurement of JAK3 kinase-inhibitory activity. The note with it: substrate peptide 1 μM, ATP 5 μM, 25° C., 80 minutes. The protocol: 3) Measurement of JAK3 Kinase-Inhibitory Activity
The activity of the compound of the present invention to inhibit the activity of JAK3 kinase was measured.
Among materials for the measurement of this inhibitory activity, a substrate peptide and a kinase protein were acquired as follows. As such a substrate peptide, a substrate peptide for QSS Assist™ JAK3-MSA assay kit (Carna Biosciences, Inc.) was purchased. As such a kinase protein, a purified recombinant human JAK3 protein (Carna Biosciences, Inc.) was purchased.
as §1, with “5” for “10”, “(20” for “(15”, “HEPES” for “Tris”, “Triton X-100).” for “Tween 20).”, “JAK3” for “JAK2”

The IC50 is the point on the concentration scale where inhibition reaches its midpoint.

SMILES strings stand for the structures. A value given as a limit tells only on which side of the number the result lay.

T2 sequence (O60674 whole entry): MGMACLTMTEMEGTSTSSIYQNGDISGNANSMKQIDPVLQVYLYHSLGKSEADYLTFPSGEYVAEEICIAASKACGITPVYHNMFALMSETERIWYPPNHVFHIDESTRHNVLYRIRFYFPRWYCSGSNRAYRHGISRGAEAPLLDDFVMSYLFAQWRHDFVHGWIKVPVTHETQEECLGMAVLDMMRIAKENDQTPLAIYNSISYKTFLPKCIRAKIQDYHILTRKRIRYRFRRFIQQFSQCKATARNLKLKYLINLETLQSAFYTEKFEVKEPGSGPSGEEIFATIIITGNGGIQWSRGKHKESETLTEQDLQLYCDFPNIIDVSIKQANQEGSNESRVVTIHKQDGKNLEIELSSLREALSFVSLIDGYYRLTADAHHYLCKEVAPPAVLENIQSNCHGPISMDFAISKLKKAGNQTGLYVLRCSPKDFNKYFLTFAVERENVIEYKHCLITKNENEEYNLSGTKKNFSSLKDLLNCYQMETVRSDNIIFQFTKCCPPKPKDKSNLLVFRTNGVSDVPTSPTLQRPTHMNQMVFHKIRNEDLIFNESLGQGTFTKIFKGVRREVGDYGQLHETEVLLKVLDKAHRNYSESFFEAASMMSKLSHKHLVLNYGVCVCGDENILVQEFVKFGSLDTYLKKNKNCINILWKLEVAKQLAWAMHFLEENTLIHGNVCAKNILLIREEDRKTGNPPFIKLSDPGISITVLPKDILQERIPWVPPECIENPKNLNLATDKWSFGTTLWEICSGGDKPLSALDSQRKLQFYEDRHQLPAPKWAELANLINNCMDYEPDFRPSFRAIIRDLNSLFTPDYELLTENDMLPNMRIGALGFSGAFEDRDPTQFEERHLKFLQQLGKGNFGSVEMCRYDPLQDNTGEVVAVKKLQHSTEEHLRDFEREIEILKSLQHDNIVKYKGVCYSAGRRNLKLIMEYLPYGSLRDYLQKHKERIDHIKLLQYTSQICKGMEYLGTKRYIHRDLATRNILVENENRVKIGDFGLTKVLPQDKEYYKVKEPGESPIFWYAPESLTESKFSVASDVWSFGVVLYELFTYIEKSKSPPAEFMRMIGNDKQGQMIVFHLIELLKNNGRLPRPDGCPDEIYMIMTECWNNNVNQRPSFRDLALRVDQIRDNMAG
T1 sequence (P23458 whole entry): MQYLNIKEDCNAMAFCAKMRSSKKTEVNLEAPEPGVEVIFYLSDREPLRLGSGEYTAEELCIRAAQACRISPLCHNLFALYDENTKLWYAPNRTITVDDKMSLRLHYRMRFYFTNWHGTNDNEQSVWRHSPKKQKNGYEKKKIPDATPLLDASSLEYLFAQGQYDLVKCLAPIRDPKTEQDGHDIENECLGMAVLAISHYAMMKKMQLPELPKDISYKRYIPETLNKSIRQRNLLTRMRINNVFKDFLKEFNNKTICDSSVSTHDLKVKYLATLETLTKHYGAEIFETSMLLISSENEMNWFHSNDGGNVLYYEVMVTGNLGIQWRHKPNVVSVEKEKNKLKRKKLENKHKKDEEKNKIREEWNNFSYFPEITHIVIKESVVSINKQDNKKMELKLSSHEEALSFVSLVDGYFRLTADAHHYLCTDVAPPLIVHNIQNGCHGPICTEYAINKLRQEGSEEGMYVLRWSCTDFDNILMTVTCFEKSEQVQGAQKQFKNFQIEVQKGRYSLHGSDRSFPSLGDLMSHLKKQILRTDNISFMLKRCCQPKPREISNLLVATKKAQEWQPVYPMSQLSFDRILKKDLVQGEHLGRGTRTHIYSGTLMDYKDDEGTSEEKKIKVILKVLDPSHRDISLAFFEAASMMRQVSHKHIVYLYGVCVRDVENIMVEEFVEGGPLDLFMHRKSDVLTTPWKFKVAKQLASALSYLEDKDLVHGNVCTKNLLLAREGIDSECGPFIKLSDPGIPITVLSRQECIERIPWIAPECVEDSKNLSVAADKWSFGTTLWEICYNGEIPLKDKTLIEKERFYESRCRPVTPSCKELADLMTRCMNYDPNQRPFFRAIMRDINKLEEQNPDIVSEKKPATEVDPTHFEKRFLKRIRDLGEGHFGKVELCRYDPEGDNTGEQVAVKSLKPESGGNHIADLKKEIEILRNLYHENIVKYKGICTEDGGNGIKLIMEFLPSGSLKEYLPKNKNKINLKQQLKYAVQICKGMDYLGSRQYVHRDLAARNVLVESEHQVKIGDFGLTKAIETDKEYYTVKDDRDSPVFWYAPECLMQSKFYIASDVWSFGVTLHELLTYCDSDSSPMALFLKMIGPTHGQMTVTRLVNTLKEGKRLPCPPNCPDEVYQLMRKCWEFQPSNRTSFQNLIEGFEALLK

Consider `C=CC(=O)NC1CCC=C(c2ccnc3[nH]cc(-c4cccnc4F)c23)C1` (stereo not drawn) [Compound 38, N-(3-(3-(2-Fluoropyridin-3-yl)-1H-pyrrolo[2,3-b]pyridin-4-yl)cyclohex-3-en-1-yl)acrylamide], for which the results for the IC50 in assay [1], in assay [2] and in assay [3] were 5800 nM, 2500 nM and 0.67 nM, respectively.

Consider `C=CC(=O)NC1CCC=C(c2ccnc3[nH]cc(-c4ccc(N)nc4)c23)C1` (stereo not drawn) [Compound 39, N-(3-(3-(6-Aminopyridin-3-yl)-1H-pyrrolo[2,3-b]pyridin-4-yl)cyclohex-3-en-1-yl)acrylamide], for which the IC50 is over 10000 nM in assay [1], 4800 nM in assay [2] and 0.83 nM in assay [3].

Consider `C=CC(=O)NC1CCC=C(c2ccnc3[nH]cc(-c4ccc[n+]([O-])c4)c23)C1` (stereo not drawn) [Compound 43, 3-(4-(5-Acrylamidecyclohex-1-en-1-yl)-1H-pyrrolo[2,3-b]pyridin-3-yl)pyridine 1-oxide], for which the IC50 is over 10000 nM in assay [1], 9100 nM in assay [2] and 0.93 nM in assay [3].

In the case of `C=CC(=O)NC1CCC=C(c2c(C#N)cnc3[nH]cc(-c4ccco4)c23)C1` (stereo not drawn) [Compound 45, N-(3-(5-Cyano-3-(furan-2-yl)-1H-pyrrolo[2,3-b]pyridin-4-yl)cyclohex-3-en-1-yl)acrylamide], the IC50 in assay [1] came to 1600 nM; in assay [2] it was 440 nM; in assay [3], 0.34 nM.

Turning to `C=CC(=O)NC1CCC=C(c2ccnc3[nH]cc(-c4nnc(C)o4)c23)C1` (stereo not drawn) [Compound 50, N-(3-(3-(5-Methyl-1,3,4-oxadiazol-2-yl)-1H-pyrrolo[2,3-b]pyridin-4-yl)cyclohex-3-en-1-yl)acrylamide], the IC50 in assay [1] is 3800 nM; in assay [2], 920 nM; in assay [3], 0.62 nM.

For the compound `C=CC(=O)NC1CCC=C(c2ccnc3[nH]cc(-c4nnc(CC)o4)c23)C1` (stereo not drawn) [Compound 51, N-(3-(3-(5-Ethyl-1,3,4-oxadiazol-2-yl)-1H-pyrrolo[2,3-b]pyridin-4-yl)cyclohex-3-en-1-yl)acrylamide], the values for the IC50 in assay [1], in assay [2] and in assay [3] were 3000 nM, 380 nM and 0.61 nM, respectively.

As for `C=CC(=O)NC1CCC=C(c2ccnc3[nH]cc(-c4n[nH]c(=O)o4)c23)C1` (stereo not drawn) [Compound 52, N-(3-(3-(5-Oxo-4,5-dihydro-1,3,4-oxadiazol-2-yl)-1H-pyrrolo[2,3-b]pyridin-4-yl)cyclohex-3-en-1-yl)acrylamide], the IC50 was 890 nM in assay [1], 480 nM in assay [2] and under 0.3 nM in assay [3].
